Results as given in US11439615B2, “Lipoxin and lipoxin analogue mediated neuroprotection and treatments” (University Health Network, priority 2017, dated 2022).

Experiments:
[1] = system: retinal ganglion cell neurons (RGCs); assay: Mouse acute retinal insult model (intravitreal kainic acid), RGC survival / GCL apoptosis; format: in vivo; conditions: 2 μl of 10 μM intravitreally one hour prior to retinal KA insult; RBPMS counts
Protocol: Male C57BLL/6 mice, 4-6 weeks of age, were purchased from Taconic or Jackson labs. All experimental protocols were approved by the UHN and UC Berkeley ACUC in accordance with applicable regulations. Mice were anesthetized by intraperitoneal injection of ketamine/xylazine. Intravitreal injections with 10 mM kainic acid (KA) were performed as previously described (45). Briefly, a 30-gauge needle was inserted tangentially into the vitreous and replaced with a Hamilton syringe to inject a volume of 2 μL, followed by application of ophthalmic antibiotic ointment (BNP, Vetoquinol). In some experiments, 10× concentrated ACM or test compounds were injected intravitreally one hour prior to the KA injection in concentrations as follows: LXA4 and LXB4 at 10 μM, Zileuton at 2 μg/ul, and WRW4 at 15 μM, all dissolved in PBS. Mice were euthanized by CO2 asphyxiation 18 hours post KA treatment and the eyes fixed in 4% paraformaldehyde. In all experiments n refers to the number of animals tested.
To quantify the extent of apoptosis, a well-established method was used to count the number of TUNEL-positive nuclei in the ganglion cell layer (GCL) and expressed it as a fraction of the total GCL nuclei (50-54). TUNEL labeling was performed according to the manufacturer's instructions (DeadEnd; Promega). Briefly, cryostat sections were fixed with 4% PFA for 5 minutes and washed in PBS. Equilibration buffer was added, and rTdT reaction mix was applied to each slide and incubated at 37° C. for 60 min. Following the rTdT reaction, slides were washed in 2×SSC and PBS and finally mounted with glycerol-based medium. For RGC survival, RBPMS-positive cells in the GCL were counted and expressed as a fraction of GCL nuclei. For each eye, at least five central retinal sections were analyzed at the level of the optic nerve stretching to each ora serrata, and the results averaged, as previously described (42).
In order to test the influence of the transplanted cells on inner retinal pathology, RA's were transplanted as above. After 16 days retinas were challenged with an acute metabolic injury by injection of kainic acid (KA). […]
Retinal astrocyte neuroprotection is mediated through secreted factors that include a small molecule component enriched in LXA4 and LXB4. […] This time, survival of RGCs was specifically assessed by probing for the selective marker RBPMS, along with complementary TUNEL staining, and quantified as previously. As expected, extensive RGC loss was detected in KA challenged eyes injected with cell-free control media incubated under the same conditions as ACM (FIG. 2A). […]

[2] = system: HT22 cells; assay: Mitosox mitochondrial oxidative stress in glutamate challenged HT22 cells; format: cell-based; conditions: 1 μM, HT22 cells challenged with glutamate, vs vehicle
Protocol: HT22 cells challenged with glutamate were then assayed for mitochondrial oxidative stress using the Mitosox reagent, in combination with 1 μM LXA4, LXB4, and the LXA4 receptor ALX/FPR2 agonists Quinc-1 and Mmk-1.

[3] = system: dopaminergic SH-SY5Y cells; assay: Mitochondrial oxidative stress in SH-SY5Y cells challenged with paraquat; format: cell-based; conditions: paraquat (PQ) induced oxidative stress, vs vehicle
[4] = system: primary RGCs; assay: Primary RGCs under serum deprivation, cell and neurite survival (β3-tubulin); format: cell-based, rat; conditions: 1 μM, 48 hours of serum and supplement deprivation
Protocol: For astrocytes: Primary mature retinal astrocytes (RA) were isolated and cultured as previously described (46). Briefly, eyes were dissected out of adult Wistar rats and placed in ice-cold MEM-H17 media. Isolated retinas were digested by shaking in MEM-H17 containing papain and DNAse, followed by trituration to disperse cell-aggregates. When cultures reached confluence, the cells were placed on a rotating shaker for 6-8 hours to remove microglia and then re-plated. A glial-specific expression profile was confirmed by probing the cultures with a panel of glia microglia and neuronal markers (44). For RGCs: RGCs were purified using magnetic MicroBeads (Miltenyi Biotec, Germany) according to the manufacturer's protocol. Briefly; retinal cell suspensions were prepared from 8-10 day old rats and incubated with CD90.1 microbeads, and then carefully washed with DPBS/BSA buffer. The suspension was centrifuged at 130×g and the supernatant aspirated. Cells were then incubated with biotinylated depletion antibodies against microglia and endothelial cells. The labeled cell suspension was then incubated with magnetic Anti-Biotin MACSiBead™ Particles, and placed in a weak magnetic field. The pre-enriched cell suspension was centrifuged, and resuspended in fresh DPBS/BSA buffer and applied to a MACs MS separation column in the presence of a strong magnetic field to select for CD90.1-bound RGCs. To increase RGC purity, the eluted fraction was enriched over a second column. Purified RGCs were eluted and plated on poly-D-lysine coated dishes. The cells were cultured in Neurobasal-A media (Gibco) supplemented with 2% calf serum, B27, L-glutamine, BDNF, CNTF, forskolin and pen/strep.
To further confirm direct lipoxin activity in primary neurons, the ability of LXA4 or LXB4 to protect primary RGCs was tested. RGCs were isolated by immunopanning according to established methods. The cells were subjected to serum deprivation (SD), and then stained for β3-tubulin to quantify cell and neurite survival. Under normal serum, the RGCs extended an extensive network of neurites. […]

[5] = system: primary cortical neurons; assay: Primary cortical neurons under paraquat oxidative stress, neuron number; format: cell-based; conditions: n=5
Text: Quantification of neuron number following oxidative stress from the redox cycling compound paraquat in primary cortical neurons.

SMILES	increase of RGC survival compared to vehicle control [1] [%]	mitochondrial oxidative stress (Mitosox) [2]	mitochondrial oxidative stress / mitochondria stabilisation [3]	neuron survival following serum deprivation [4]	neuron number following oxidative stress from paraquat [5]	neurite degeneration following serum deprivation (intact neurite ratio) [4]
CCCCC[C@H](O)/C=C/C=C\C=C\C=C\[C@@H](O)[C@@H](O)CCCC(=O)O [LXA4, 5S,6R,15S-trihydroxy-7E,9E,11Z,13E-eicosatetraenoic acid]	37	reduce mitochondrial oxidative stress	stabilize mitochondria	significant rescue	have activities	
CCCCC[C@H](O)[C@H](O)/C=C/C=C/C=C\C=C\[C@@H](O)CCCC(=O)O [LXB4, 5S,14R,15S-trihydroxy-6E,8Z,10E,12E-eicosatetraenoic acid]	50	reduce mitochondrial oxidative stress	stabilize mitochondria	significant rescue	have activities	strongly rescued
